We go through eleven molecules from patent US20240343710A1, “HETEROCYCLIC COMPOUNDS AND METHODS OF USE THEREOF” (1cBio, Inc., priority 2023, published 2024).

For experiment [1], the system named is DLD-1 BRCA2(−/−) colorectal adenocarcinoma cells. The experiment in a line: Cell viability assay (Cell Titer-Glo, 7 days), DLD-1 BRCA2(−/−). The format is cell-based. To be noted: Homo sapiens, 168 h, DLD-1 BRCA2(−/−) cells. An excerpt: (§1) In some embodiments, the biological assay measures the effects that compounds of the present disclosure may have on the viability of cells, e.g., the viability of cancer cells. In some embodiments, DLD-1 wild-type and DLD-1 BRCA2(−/−) colorectal adenocarcinoma cells, an isogenic pair of cell lines differing in the presence and absence, respectively, of both BRCA2 alleles, are used to measure the effect of the disclosed compounds on the viability of cancer cells. In some embodiments, the cells are harvested during the logarithmic growth period, counted, and seeded at a specified count in the wells of a 96- or 384-well cell culture plate. In some embodiments, after seeding, the cells are incubated, e.g., at 37° C., 5% CO2 overnight. In some embodiments, the cells are treated with compounds, e.g., with serially diluted test compounds at 8-11 concentrations within a desired concentration range, e.g., from 1 nM-10 μM, for the generation of dose-response curves. In some embodiments, the plate is further incubated, e.g., for another 3-7 days in a humidified incubator at 37° C. and 5% CO2. In some embodiments, cell viability is assessed by luminescence measurement after addition of Cell Titer-Glo reagent (Promega, Madison, Wis.) according to the manufacturer's instructions. In some embodiments, cell viability IC50 values are calculated using XLFit, equation 201: y=A+((B−A)/(1+((x/C)^D))), where A=bottom, B=top, C=IC50, and D=slope. In some embodiments, the effects of the test compounds on the viability of other cell lines such as MDA-MB-436, MDA-MB-231, SUM149PT, HCC1395, and UWB1.289 are determined in an analogous method.
(§2) Compounds of the present disclosure were tested for their effects on the viability of cancer cells. DLD-1 wild-type and DLD-1 BRCA2(−/−) colorectal adenocarcinoma cells, an isogenic pair of cell lines differing in the presence and absence, respectively, of both BRCA2 alleles, were used. The cells were harvested during the logarithmic growth period, counted, and seeded at 50 cells/well for DLD-1 wild-type and 200 cells/well for DLD-1 BRCA2(−/−) in a 384-well cell culture plate. After seeding, cells were incubated at 37° C., 5% CO2 overnight. Cells were treated with serially diluted test compounds at 10 concentrations (e.g., from 1.5 nM-30 μM) for generation of dose response curves, or at a single concentration. The plate was further incubated for another 7 days in a humidified incubator at 37° C. and 5% CO2. Cell viability was assessed by luminescence measurement after addition of Cell Titer-Glo reagent (Promega, Madison, Wis.) according to the manufacturer's instructions. Cell viability IC50 values were calculated using XLFit, equation 201. y=A+((B−A)/(1+((x/C)^D))), where A=bottom, B=top, C=IC50, and D=slope. IC50 values are shown in Table B and are presented in ranges, in which “+++”<300 nM, 300 nM≤“++”<3000 nM, and “+”≥3000 nM. Values for percent inhibition at 10 μM are also shown in Table B and are presented in ranges, in which “***”≥67%, 33%: “**”≤67%, and “*”<33%. Effects of the test compounds on the viability of other cell lines such as MDA-MB-436, MDA-MB-231, SUM149PT, HCC1395, and UWB1.289 are determined in an analogous method.
For orientation: Cellular ATP, detected with luciferase, serves as a proxy for viable cell number.

Experiment [2] relates to DLD-1 wild-type colorectal adenocarcinoma cells. Kind of experiment: Cell viability assay (Cell Titer-Glo, 7 days), DLD-1 wild-type. The format is cell-based. Particulars: Homo sapiens, 168 h, DLD-1 wild-type cells, read-out: DLD-1 wild-type % inh at 10 μM.
Source text: as §1, §2

Another experiment has as its target recombinant human PARP1 (Homo sapiens, UniProt P09874). The experiment in a line: PARP1 fluorescence polarization binding assay. To be noted: GST-tagged PARP1 20 nM, PARP1-FL probe 3 nM. Here is the method:
In some embodiments, the biological assay is described in the Examples herein. In some embodiments, the biological assay measures PARP-1 binding by way of fluorescence polarization measurements. In some embodiments, binding of a test compound to recombinant human PARP-1 reduces the amount of binding of a fluorescent probe, and consequently reduces the detected level of fluorescence polarization. In some test compound stock solutions are prepared in a solvent, e.g., DMSO, and are serially diluted into a range of concentrations, e.g., 15 concentrations, 14 concentrations, 13 concentrations, 12 concentrations, 11 concentrations, 10 concentrations, 9 concentrations, 8 concentrations, 7 concentrations, 6 concentrations, or 5 concentrations, by a dilution factor, e.g., a 10-fold dilution factor, a 9-fold dilution factor, an 8-fold dilution factor, a 7-fold dilution factor, a 6-fold dilution factor, a 5-fold dilution factor, a 4-fold dilution factor, a 3-fold dilution factor, or a 2-fold dilution factor. In some embodiments, the serial dilutions, e.g., 100 nL of serial dilution, 90 nL of serial dilution, 80 nL of serial dilution, 70 nL of serial dilution, 60 nL of serial dilution, 50 nL of serial dilution, 30 nL of serial dilution, 20 nL of serial dilution, or 10 nL of serial dilution, are added to a multi-welled plate, e.g., a 1536-well plate, a 384-well plate, or a 96-well plate. In some embodiments, PARP-1, e.g., GST-tagged PARP-1, is diluted in assay buffer, e.g., 50 μL of assay buffer, 40 μL of assay buffer, e.g., 30 μL of assay buffer, 20 μL of assay buffer, 10 μL of assay buffer, or 5 μL of assay buffer, and is added to the plate. In some embodiments, the plate is centrifuged, e.g., at 1000 rpm for 1 min, and incubated, e.g., incubated for 30 minutes at room temperature (RT). In some embodiments, a fluorescent probe, e.g., 10 μL of 6 nM PARP1-FL (TOCRIS, Cat #6461), is diluted in an assay buffer and is added to the plate. In some embodiments, the final concentrations of PARP-1 and fluorescent probe are 20 nM and 3 nM, respectively, in a total volume of 20 μL. In some embodiments, the plate is centrifuged, e.g., at 1000 rpm for 1 minute, and the assay plate is incubated, e.g., for 4 h at RT. In some embodiments, the samples in each well are read using a plate reader, e.g., an Envision instrument using excitation=480 nm, and emission wavelength=FITC FP-P pol 535 nm & FITC FP-S pol 535 nm). In some embodiments, percent inhibition is calculated from mP values using Inhibition (%)=[1−(mPc−mPL)/(mPH−mPL)]×100%, where mPc, mPL, and mPH are the mP values of test compound, Low controls, and High controls, respectively. In some embodiments, binding IC50 values are calculated using XLFit (equation 201: y=A+((B−A)/(1+((x/C)^D))), where A=bottom, B=top, C=IC50, and D=slope) with a floating top and bottom for curves.
Compounds of the present disclosure were tested in a PARP1 fluorescence polarization binding assay at Pharmaron (Beijing, P.R. China). In this biochemical assay, binding of test compound to recombinant human PARP1 reduces the amount of binding of a fluorescent probe, and consequently reduces the detected level of fluorescence polarization. Test compound stock solutions were prepared in DMSO and then serially diluted into 10 concentrations by 3-fold dilution in a 384-well plate using a TECAN EVO200. Alternatively, a single concentration was prepared. 60 nL of each dilution was transferred to the plate using an Echo550 (Labcyte), and then 10 μL 40 nM GST-tagged PARP1 (BPS Bioscience, Cat #80501), diluted in assay buffer (50 mM Tris pH 8.0, 0.001% Triton X-100, 10 mM MgCl2, 150 mM NaCl), was added to the plate. After a centrifugation at 1000 rpm for 1 min, the assay plate was incubated for 30 min at RT. 10 μL 6 nM PARP1-FL (TOCRIS, Cat #6461), diluted using assay buffer, was then added to the plate. The final concentrations of PARP1 and PARP1-FL were 20 nM and 3 nM, respectively, in a total volume of 20 μL. […]
A general note: Fluorescence polarisation rises when a labelled molecule tumbles more slowly, as on binding a larger partner.

For another experiment, the target named is recombinant human PARP2 (Homo sapiens, UniProt Q9UGN5). Kind of experiment: PARP2 fluorescence polarization binding assay. To be noted: read-out: PARP2 % inh at 10 μM.
Where [3] appears, read: percent inhibition at 10 μM, fluorescence polarization, GST-tagged PARP2 20 nM, PARP1-FL probe 3 nM.

Structures can show the parent of a compound that is named as a salt. Where two headings read alike, the source gives them in different places. Where only a bound is given, the exact number is not on record here.

recombinant human PARP2, sequence (Q9UGN5 whole entry): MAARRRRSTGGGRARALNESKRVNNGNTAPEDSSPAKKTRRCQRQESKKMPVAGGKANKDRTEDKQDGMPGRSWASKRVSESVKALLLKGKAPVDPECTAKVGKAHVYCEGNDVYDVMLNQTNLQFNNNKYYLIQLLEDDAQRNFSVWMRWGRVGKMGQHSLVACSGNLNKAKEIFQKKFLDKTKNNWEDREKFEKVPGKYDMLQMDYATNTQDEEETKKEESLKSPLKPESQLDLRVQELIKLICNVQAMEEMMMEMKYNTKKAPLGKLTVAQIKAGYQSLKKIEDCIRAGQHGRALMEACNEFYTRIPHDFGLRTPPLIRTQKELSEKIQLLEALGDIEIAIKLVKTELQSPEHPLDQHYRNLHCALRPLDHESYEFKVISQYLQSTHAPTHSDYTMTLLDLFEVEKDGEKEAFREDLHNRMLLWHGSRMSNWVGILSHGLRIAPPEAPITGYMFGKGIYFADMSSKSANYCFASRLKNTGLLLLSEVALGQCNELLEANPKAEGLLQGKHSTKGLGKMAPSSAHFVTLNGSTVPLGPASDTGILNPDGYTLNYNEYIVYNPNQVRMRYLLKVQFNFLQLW
recombinant human PARP1, sequence (P09874 whole entry): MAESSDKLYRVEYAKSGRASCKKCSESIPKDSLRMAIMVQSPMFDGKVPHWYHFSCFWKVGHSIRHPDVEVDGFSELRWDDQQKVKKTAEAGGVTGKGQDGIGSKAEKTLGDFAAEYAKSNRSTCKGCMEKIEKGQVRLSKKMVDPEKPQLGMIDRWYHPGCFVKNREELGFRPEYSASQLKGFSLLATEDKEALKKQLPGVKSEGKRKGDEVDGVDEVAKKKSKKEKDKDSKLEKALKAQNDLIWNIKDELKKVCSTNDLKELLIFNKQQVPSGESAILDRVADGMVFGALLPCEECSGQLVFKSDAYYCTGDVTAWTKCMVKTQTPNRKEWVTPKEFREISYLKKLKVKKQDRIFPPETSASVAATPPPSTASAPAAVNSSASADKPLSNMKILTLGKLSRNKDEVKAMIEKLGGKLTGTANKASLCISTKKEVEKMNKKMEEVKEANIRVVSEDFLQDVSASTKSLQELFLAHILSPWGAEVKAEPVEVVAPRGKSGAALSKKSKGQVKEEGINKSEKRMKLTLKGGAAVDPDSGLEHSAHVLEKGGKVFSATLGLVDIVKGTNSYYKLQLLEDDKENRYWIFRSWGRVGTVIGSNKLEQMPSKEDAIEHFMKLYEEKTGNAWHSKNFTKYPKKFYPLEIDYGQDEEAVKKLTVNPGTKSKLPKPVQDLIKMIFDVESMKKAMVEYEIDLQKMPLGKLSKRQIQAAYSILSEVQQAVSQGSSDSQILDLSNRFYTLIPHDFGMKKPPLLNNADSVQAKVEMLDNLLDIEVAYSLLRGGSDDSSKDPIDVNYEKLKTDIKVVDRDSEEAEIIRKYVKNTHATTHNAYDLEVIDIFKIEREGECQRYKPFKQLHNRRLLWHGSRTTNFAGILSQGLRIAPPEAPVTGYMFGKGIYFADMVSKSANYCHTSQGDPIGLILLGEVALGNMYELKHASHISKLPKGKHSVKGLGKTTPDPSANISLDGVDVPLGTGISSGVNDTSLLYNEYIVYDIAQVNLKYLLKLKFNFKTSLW

In general, IC50 refers to the concentration needed to halve the response being measured. Take `CCNC(=O)Nc1cc(CN2CCN(c3ccc(C(=O)NC)cc3F)CC2)ccn1` [Compound 31, 4-(4-((2-(3-ethylureido)pyridin-4-yl)methyl)piperazin-1-yl)-3-fluoro-N-methylbenzamide]: the half-maximal inhibitory concentration (IC50) was 300 to 3000 nM in experiment [1] and under 100 nM at recombinant human PARP1. The inhibition at 10 µM (in experiment [2]; on recombinant human PARP2 (setting [3])) was under 33% throughout.
With `CCNC(=O)Nc1cc(CN2CCN(c3ccc(C(=O)NC)c(=O)n3C)CC2)ccn1` [Compound 30, 6-(4-((2-(3-ethylureido)pyridin-4-yl)methyl)piperazin-1-yl)-N,1-dimethyl-2-oxo-1,2-dihydropyridine-3-carboxamide], the IC50 in experiment [1] was 300 to 3000 nM; on recombinant human PARP1, under 100 nM. In addition, the inhibition at 10 µM (in experiment [2]; at recombinant human PARP2 (setting [3])) was under 33% throughout.
Take `CCNC(=O)Nc1cc(CN2CCN(c3ccc(C#N)cc3F)CC2)ccn1` [Compound 276, 1-(4-((4-(4-cyano-2-fluorophenyl)piperazin-1-yl)methyl)pyridin-2-yl)-3-ethylurea trifluoroacetate]: the IC50 in experiment [1] is under 300 nM; on recombinant human PARP1 it was under 100 nM. Moreover, the inhibition at 10 µM (in experiment [2]; at recombinant human PARP2) was under 33% in each case.
For `CCNC(=O)Nc1cc(CN2CCN(c3ccc(C(=O)CC)nc3C)CC2)ccn1` [Compound 7, 1-ethyl-3-(4-((4-(2-methyl-6-propionylpyridin-3-yl)piperazin-1-yl)methyl)pyridin-2-yl)urea], the IC50 in experiment [1] was 300 to 3000 nM; at recombinant human PARP1 it was under 100 nM. The inhibition at 10 µM was 33 to 67% in experiment [2] and under 33% at recombinant human PARP2 (setting [3]).
As to `CNC(=O)c1ccc(N2CCN(Cc3ccnc(NC(=O)NC(C)C)c3)CC2)c(C)n1` [Compound 259, 5-(4-((2-(3-isopropylureido)pyridin-4-yl)methyl)piperazin-1-yl)-N,6-dimethylpicolinamide], the 50% inhibitory concentration (IC50) in experiment [1] was 300 to 3000 nM; at recombinant human PARP1, under 100 nM. The inhibition at 10 µM (in experiment [2]; on recombinant human PARP2 (setting [3])) was under 33% in each case.
For `CCNC(=O)Nc1cc(CN2CCN(c3ccc(C#N)cn3)CC2)ccn1` [Compound 263, 1-(4-((4-(5-cyanopyridin-2-yl)piperazin-1-yl)methyl)pyridin-2-yl)-3-ethylurea], the IC50 is under 300 nM in experiment [1] and under 100 nM on recombinant human PARP1. Also, the inhibition at 10 µM (in experiment [2]; at recombinant human PARP2 (setting [3])) was under 33% each time.
Turning to `CCNC(=O)Nc1cccc(CN2CCN(c3ccc(C(=O)NC)nc3C)CC2)c1` [Compound 202, 5-(4-(3-(3-ethylureido)benzyl)piperazin-1-yl)-N,6-dimethyl picolinamide formate], the IC50 is at least 3000 nM in experiment [1] and 100 to 3000 nM at recombinant human PARP1. In addition, the inhibition at 10 µM (in experiment [2]; on recombinant human PARP2 (setting [3])) was under 33% in each case.
`CCNC(=O)Nc1ncc(CN2CCN(c3ccc(C(=O)NC)nc3C)CC2)o1` [Compound 246, 5-(4-((2-(3-ethylureido)oxazol-5-yl)methyl)piperazin-1-yl)-N,6-dimethylpicolinamide]: the concentration for half-maximal inhibition (IC50) was under 300 nM in experiment [1] and under 100 nM at recombinant human PARP1. Moreover, the inhibition at 10 µM (in experiment [2]; at recombinant human PARP2 (setting [3])) was under 33% each time.
For the molecule `CCNC(=O)Nc1cc(CN2CCN(c3ccc(-c4ncc[nH]4)nc3C)CC2)ccn1` [Compound 272, 1-(4-((4-(6-(1H-imidazol-2-yl)-2-methylpyridin-3-yl)piperazin-1-yl)methyl)pyridin-2-yl)-3-ethylurea formate], the values for the IC50 (in experiment [1]; on recombinant human PARP1) were under 300 nM and under 100 nM, respectively. The inhibition at 10 µM (in experiment [2]; on recombinant human PARP2) was under 33% each time.
Regarding `CCNC(=O)Nc1nccc(CN2CCN(c3ccc(C(=O)NC)nc3C)CC2)c1F` [Compound 82, 5-(4-((2-(3-ethylureido)-3-fluoropyridin-4-yl)methyl)piperazin-1-yl)-N,6-dimethylpicolinamide], the IC50 in experiment [1] is under 300 nM; at recombinant human PARP1 it was under 100 nM. In addition, the inhibition at 10 µM (in experiment [2]; on recombinant human PARP2 (setting [3])) was under 33% in each case.
On to `CCNC(=O)Nc1nccc(CN2CCN(c3ccc(C#N)cn3)CC2)c1F` [Compound 268, 1-(4-((4-(5-cyanopyridin-2-yl)piperazin-1-yl)methyl)-3-fluoropyridin-2-yl)-3-ethylurea], for which the IC50 was under 300 nM in experiment [1] and under 100 nM at recombinant human PARP1. Further, the inhibition at 10 µM (in experiment [2]; on recombinant human PARP2 (setting [3])) was under 33% each time.
